Experimental findings from patent US20230399358A1, “IMMUNOGLOBULIN PURIFICATION PEPTIDES AND THEIR USE” (North Carolina State University, priority 2019, published 2023) are described below.

Experiment [1] has as its system human polyclonal IgG in CHO cell culture fluid. Nature of the experiment: Chromatographic purification of IgG from CHO cell culture fluid on WorkBeads resin, SDS-PAGE densitometry. The following applies: Elution 1 (pH 4), 5 min residence time, FIG. 7B. On the procedure: (§1) Purification of IgG from CHO Cell culture fluids using MWRGWQC (SEQ ID NO:31)- and WQRHGIC (SEQ ID NO:30)—Workbeads: A volume of 0.1 mL of resin was packed in a PEEK microbore column, installed on a Waters 2695 unit, and equilibrated with PBS, pH 7.4. All chromatographic buffers were filtered through a compatible 0.2 μm filter prior to use. A volume of 100 μL of solution of human polyclonal IgG at 1 mg/mL in a CHO cell culture fluid at 0.205 mg/mL CHO HCPs was injected in the column at 0.02 mL/min (RT: 5 minutes). Following injection, the resin was washed with PBS at 0.2 mL/min and, subsequently, with 100 mM NaCl in PBS at 0.2 mL/min. Elution was then conducted with […] pH 4. An acidic cleaning step was conducted in 0.1 M glycine pH 2.5 to remove any proteins still bound. The absorbance of the effluent was monitored by UV/Vis spectrophotometry at 280 nm. Fractions were collected and adjusted to neutral pH. Total protein concentration was measured by BCA assay. All collected fractions were also analyzed via SDS PAGE under reducing conditions. The gel was stained by silver staining, and the overall IgG purity in the eluted fractions was determined by densitometric analysis using ImageJ software. Finally, the feed and eluted fractions were analyzed using a CHO-specific ELISA kit to determine the log removal value (LRV) of HCPs.
The high purity of the recovered IgG using WQRHGI (SEQ ID NO:1), as calculated by densitometric analysis (100%) was confirmed by the HCP LRV value of 2.7, thus indicating WQRHGI (SEQ ID NO:1) has purification abilities similar to Protein A. This is a remarkable result. […] The collected chromatographic fractions were analyzed by SDS-PAGE (FIG. 7B, silver stained to highlight diluted CHO HCPs). The % values of IgG in the fractions (expressed as a ratio of IgG concentration over total protein (e.g., IgG+CHO HCPs)) were calculated by densitometric analysis of the lanes in the SDS gel and were as follows: Control (C), 0.00%; Load (L) 59.77%; Flowthrough (FT), 0.00%; Elution 1 (El1), 100.00%; Elution 2 (El2), 0.00%; IgG 93.30%. […]

In the next experiment the test system is CHO HCPs. Nature of the experiment: CHO HCP-specific ELISA, log removal value of HCPs. On the set-up: species or system Chinese hamster. As to the method:
as §1, with “HCPs. […]” for “HCPs.”

With WQRHGI, in experiment [1], the “% IgG over total protein” value worked out at 100%. Further, the HCP clearance entry with CHO HCPs is on record as “greater than 99%”. The “HCP LRV” value in the experiment with CHO HCPs (IgG 1 mg/mL in CHO fluid with 0.205 mg/mL HCPs, elution pH 4) worked out at 2.7.
